# From ChEMBL document CHEMBL3885861, “Open TG-GATES”
# Species on record: Rattus norvegicus
# Assay: Open TG-GATES - Regimen: Single
# Assay type: toxicity, organism-based, Sprague-Dawley
# Set-up: regimen Single, gender Male, age 6 weeks
# Settings: in vivo, po, 0 mg/kg, route gavage, dose level Control; for APTT / Bas / Eos / Fbg / Hb / Ht / MCH / MCHC / MCV / Mono / PT / Plat / RBC / Ret / WBC: tissue Blood; for ALP / ALT / CRE / DBIL / GLC / IP / K / LDH / Na / PL / RALB / TBIL / TC / TG / TP / gamma-GTP: tissue Plasma
compound,measurement,setting,value
CCN(CC)C(=S)SSC(=S)N(CC)CC,TERMINAL_BW,3 h,212.4 g
same,APTT,3 h,21.9 s
same,Bas,3 h,0%
same,Eos,3 h,0.6%
same,Fbg,3 h,285.8 mg/dL
same,Hb,3 h,13.2 g/dL
same,Ht,3 h,40.8%
same,MCH,3 h,20.6 pg
same,MCHC,3 h,32.3%
same,MCV,3 h,63.8 fL
same,Mono,3 h,2.6%
same,PT,3 h,16.5 s
same,Plat,3 h,98.3 x10_4/uL
same,RBC,3 h,639.2 x10_4/ul
same,Ret,3 h,7.6%
same,WBC,3 h,97.5 x10_2/uL
same,ALP,3 h,1602.8 IU/L
same,ALT,3 h,48 IU/L
same,CRE,3 h,0.2 mg/dL
same,DBIL,3 h,0 mg/dL
same,GLC,3 h,188.6 mg/dL
same,IP,3 h,7.8 mg/dL
same,K,3 h,4.2 meq/L
same,LDH,3 h,236.6 IU/L
same,Na,3 h,141.4 meq/L
same,PL,3 h,138 mg/dL
same,RALB,3 h,3 g/dL
same,TBIL,3 h,0.006 mg/dL
same,TC,3 h,73.6 mg/dL
same,TG,3 h,72.4 mg/dL
same,TP,3 h,5.5 g/dL
same,gamma-GTP,3 h,1 IU/L
same,TERMINAL_BW,6 h,208.9 g
same,APTT,6 h,21.8 s
same,Bas,6 h,0%
same,Eos,6 h,0.8%
same,Fbg,6 h,286.4 mg/dL
same,Hb,6 h,12.8 g/dL
same,Ht,6 h,39.4%
same,MCH,6 h,20.1 pg
same,MCHC,6 h,32.4%
same,MCV,6 h,62 fL
same,Mono,6 h,2%
same,PT,6 h,16.6 s
same,Plat,6 h,119.2 x10_4/uL
same,RBC,6 h,635.6 x10_4/ul
same,Ret,6 h,7.1%
same,WBC,6 h,102.5 x10_2/uL
same,ALP,6 h,1209.4 IU/L
same,ALT,6 h,38.8 IU/L
same,CRE,6 h,0.1 mg/dL
same,DBIL,6 h,0 mg/dL
same,GLC,6 h,184 mg/dL
same,IP,6 h,9.5 mg/dL
same,K,6 h,4.4 meq/L
same,LDH,6 h,188 IU/L
same,Na,6 h,141 meq/L
same,PL,6 h,124.6 mg/dL
same,RALB,6 h,3 g/dL
same,TBIL,6 h,0.004 mg/dL
same,TC,6 h,71.8 mg/dL
same,TG,6 h,56.8 mg/dL
same,TP,6 h,5.3 g/dL
same,gamma-GTP,6 h,1 IU/L
same,TERMINAL_BW,9 h,212.5 g
same,APTT,9 h,23.3 s
same,Bas,9 h,0%
same,Eos,9 h,0.8%
same,Fbg,9 h,297.2 mg/dL
same,Hb,9 h,12.9 g/dL
same,Ht,9 h,39.9%
same,MCH,9 h,20.2 pg
same,MCHC,9 h,32.3%
same,MCV,9 h,62.6 fL
same,Mono,9 h,2.6%
same,PT,9 h,16.4 s
same,Plat,9 h,107.7 x10_4/uL
same,RBC,9 h,638.6 x10_4/ul
same,Ret,9 h,7.1%
same,WBC,9 h,111.4 x10_2/uL
same,ALP,9 h,1326.8 IU/L
same,ALT,9 h,33.6 IU/L
same,CRE,9 h,0.2 mg/dL
same,DBIL,9 h,0.002 mg/dL
same,GLC,9 h,198.8 mg/dL
same,IP,9 h,10 mg/dL
same,K,9 h,4.1 meq/L
same,LDH,9 h,130 IU/L
same,Na,9 h,140.8 meq/L
same,PL,9 h,132.4 mg/dL
same,RALB,9 h,3.1 g/dL
same,TBIL,9 h,0.008 mg/dL
same,TC,9 h,72.6 mg/dL
same,TG,9 h,82.4 mg/dL
same,TP,9 h,5.4 g/dL
same,gamma-GTP,9 h,1 IU/L
same,TERMINAL_BW,24 h,229.8 g
same,APTT,24 h,20.8 s
same,Bas,24 h,0%
same,Eos,24 h,1%
same,Fbg,24 h,278.6 mg/dL
same,Hb,24 h,12.5 g/dL
same,Ht,24 h,38.4%
same,MCH,24 h,20.4 pg
same,MCHC,24 h,32.6%
same,MCV,24 h,62.5 fL
same,Mono,24 h,2.6%
same,PT,24 h,16.4 s
same,Plat,24 h,106.2 x10_4/uL
same,RBC,24 h,613.8 x10_4/ul
same,Ret,24 h,7.5%
same,WBC,24 h,83.8 x10_2/uL
same,ALP,24 h,1487.8 IU/L
same,ALT,24 h,40.4 IU/L
same,CRE,24 h,0.1 mg/dL
same,DBIL,24 h,0 mg/dL
same,GLC,24 h,193.4 mg/dL
same,IP,24 h,7.8 mg/dL
same,K,24 h,4.2 meq/L
same,LDH,24 h,167.6 IU/L
same,Na,24 h,141.2 meq/L
same,RALB,24 h,3 g/dL
same,TBIL,24 h,0.01 mg/dL
same,TC,24 h,78.4 mg/dL
same,TG,24 h,81.6 mg/dL
same,TP,24 h,5.5 g/dL
same,gamma-GTP,24 h,1.8 IU/L
